≈ marks a conversion by molar mass, not a printed value.
Tests used:
Experiment in all cases: ≥ marks a high value that may be exact or a test limit, other limits are often not marked, values filed in µg/mL are converted to µM
[1] = system: Bacillus cereus ATCC 14579
[2] = system: Bacillus subtilis ATCC 23857
[3] = system: Candida albicans ATCC 90028
[4] = system: Cryptococcus neoformans ATCC 28957
[5] = system: Escherichia coli ATCC 25922
[6] = system: Fusarium oxysporum f.sp. vasinfectum
Fusarium oxysporum = system: Fusarium oxysporum
Fusarium solani = system: Fusarium solani
[7] = system: Pectobacterium carotovorum
[8] = system: Pseudomonas syringae pv. tabaci
Ramulariopsis gossypii = system: Ramulariopsis gossypii
Rhizoctonia solani = system: Rhizoctonia solani
[9] = system: Staphylococcus aureus ATCC 25923
Trichoderma asperellum = system: Trichoderma asperellum
[10] = system: Xanthomonas campestris pv. citri
[11] = system: Aeromonas salmonicida RFAS1
[12] = system: Edwardsiella tarda FP4130
[13] = system: Streptococcus iniae FP5228
[14] = system: Vibrio alginolyticus KCCM 2928
[15] = system: Vibrio harveyi ATCC 14126
[16] = system: Vibrio ordalii KCCM 41669
[17] = system: Candida glabrata ATCC 90030
Candida krusei ATCC 6258 = system: Candida krusei ATCC 6258
[18] = system: Enterobacter cloacae ATCC 13047
[19] = system: Enterococcus faecalis ATCC 4028
[20] = system: Pseudomonas aeruginosa ATCC 27853
[21] = system: Staphylococcus aureus ATCC 29213
[22] = system: Staphylococcus epidermidis ATCC 12228
[23] = system: Bacillus cereus ATCC 11778
[24] = system: Enterococcus faecalis ATCC 29212
Escherichia coli O157 = system: Escherichia coli O157
[25] = system: Salmonella enterica subsp. enterica serovar Typhimurium ATCC 13311
[26] = system: Shigella sonnei ATCC 11060
[27] = system: Staphylococcus aureus ATCC 43300
Vibrio cholerae O1 Inaba = system: Vibrio cholerae O1 Inaba
[28] = system: Candida albicans ATCC 10231
Candida krusei CBS 573 = system: Candida krusei CBS 573
[29] = system: Candida parapsilosis CBS 604
[30] = system: Saccharomyces cerevisiae SZMC 0644
[31] = system: Escherichia coli K-12 594
[32] = system: Staphylococcus aureus ATCC 6538P
[33] = system: Staphylococcus aureus SR1550
[34] = system: Acinetobacter baumannii ATCC 19606
[35] = system: Klebsiella pneumoniae ATCC 13883
[36] = system: Pseudomonas aeruginosa ATCC 47085

**Q.** With `CC[C@H](C)[C@H](NC(=O)[C@H](Cc1cnc[nH]1)NC(=O)CNC(=O)[C@H](Cc1ccccc1)NC(=O)[C@@H](N)Cc1ccccc1)C(=O)N[C@@H](Cc1c[nH]c2ccccc12)C(=O)N[C@@H](Cc1cnc[nH]1)C(=O)NCC(=O)N[C@@H](C)C(=O)N[C@@H](CCCN=C(N)N)C(=O)N[C@H](C(=O)N[C@@H](CC(C)C)C(=O)N[C@@H](Cc1ccccc1)C(=O)N[C@@H](CCCN=C(N)N)C(=O)N[C@@H](CC(=O)O)C(=O)N[C@H](C(=O)N[C@@H](Cc1ccccc1)C(=O)N[C@@H](C)C(N)=O)C(C)C)[C@@H](C)O` [FFGHIWHGARTLFRDVFA] as the compound, how does the MIC [1] read?
**A.** The MIC was no less than 64 µM.

**Q.** And the MIC [2]?
**A.** The MIC was 3.33 µM (≈ 7.25 µg/mL).

**Q.** What about the MIC [3] of the same compound?
**A.** Its MIC is no less than 32 µM.

**Q.** And the MIC [4]?
**A.** The MIC was no less than 32 µM.

**Q.** What about the MIC [5] of the same compound?
**A.** The MIC was 8 µM (≈ 17.4 µg/mL).

**Q.** And the MIC [6]?
**A.** Its MIC is 13.3 µM (≈ 29 µg/mL).

**Q.** And the MIC (Fusarium oxysporum)?
**A.** Its MIC is 16 µM (≈ 34.8 µg/mL).

**Q.** And the MIC (Fusarium solani)?
**A.** The MIC was 8 µM (≈ 17.4 µg/mL).

**Q.** What about the MIC [7] of the same compound?
**A.** Its MIC is no less than 32 µM.

**Q.** What about the MIC [8] of the same compound?
**A.** Its MIC is 4 µM (≈ 8.71 µg/mL).

**Q.** What about the MIC (Ramulariopsis gossypii) of the same compound?
**A.** The MIC was 16 µM (≈ 34.8 µg/mL).

**Q.** And the MIC (Rhizoctonia solani)?
**A.** Its MIC is no less than 32 µM.

**Q.** And the MIC [9]?
**A.** Its MIC is 8 µM (≈ 17.4 µg/mL).

**Q.** What about the MIC (Trichoderma asperellum) of the same compound?
**A.** Its MIC is 8 µM (≈ 17.4 µg/mL).

**Q.** And the MIC [10]?
**A.** The MIC was no less than 32 µM.

**Q.** What does the source list for `CC[C@H](C)[C@H](NC(=O)[C@H](CC(N)=O)NC(=O)[C@H](CCCCN)NC(=O)[C@H](Cc1c[nH]c2ccccc12)NC(=O)CNC(=O)[C@H](CCC(=O)O)NC(=O)[C@H](CCCCN)NC(=O)[C@H](CC(C)C)NC(=O)[C@H](CCC(=O)O)NC(=O)[C@H](CCC(N)=O)NC(=O)[C@H](Cc1ccccc1)NC(=O)[C@@H](N)Cc1ccccc1)C(=O)N[C@@H](CCCCN)C(=O)N[C@@H](CCCCN)C(=O)N[C@@H](C)C(=O)O` [FFQELKEGWKNIKKA]?
**A.** MIC [11]: 7.8 µM (≈ 14.6 µg/mL); MIC [12]: ≥ 62.5 µM; MIC [13]: 15.6 µM (≈ 29.1 µg/mL); MIC [14]: 7.8 µM (≈ 14.6 µg/mL); MIC [15]: ≥ 125 µM; MIC [16]: 2 µM (≈ 3.73 µg/mL)

**Q.** With `CC[C@H](C)[C@H](NC(=O)[C@H](CC(C)C)NC(=O)CNC(=O)[C@H](CCCCN)NC(=O)[C@@H](NC(=O)[C@H](CC(C)C)NC(=O)[C@H](CCCCN)NC(=O)[C@@H]1CCCN1C(=O)[C@@H](NC(=O)[C@H](CC(C)C)NC(=O)[C@H](CO)NC(=O)[C@H](Cc1ccccc1)NC(=O)[C@@H](N)Cc1ccccc1)[C@@H](C)CC)C(C)C)C(=O)N[C@@H](CO)C(=O)N[C@@H](C)C(=O)N[C@@H](Cc1ccccc1)C(=O)N[C@@H](CCCCN)C(N)=O` [FFSLIPKLVKGLISAFK] as the compound, how does the MIC [3] read?
**A.** Its MIC is 9.38 µM (≈ 17.9 µg/mL).

**Q.** And the MIC [17]?
**A.** Its MIC is 18.8 µM (≈ 35.8 µg/mL).

**Q.** What about the MIC (Candida krusei ATCC 6258) of the same compound?
**A.** The MIC was no less than 37.5 µM.

**Q.** And the MIC [18]?
**A.** The MIC was 18.8 µM (≈ 35.8 µg/mL).

**Q.** What about the MIC [19] of the same compound?
**A.** Its MIC is 1.17 µM (≈ 2.23 µg/mL).

**Q.** And the MIC [5]?
**A.** Its MIC is 4.69 µM (≈ 8.95 µg/mL).

**Q.** What about the MIC [20] of the same compound?
**A.** The MIC was 9.38 µM (≈ 17.9 µg/mL).

**Q.** What about the MIC [21] of the same compound?
**A.** The MIC was 2.34 µM (≈ 4.46 µg/mL).

**Q.** And the MIC [22]?
**A.** The MIC was 1.17 µM (≈ 2.23 µg/mL).

**Q.** For `CC(C)C[C@H](NC(=O)CNC(=O)[C@H](CCCN=C(N)N)NC(=O)[C@H](CS)NC(=O)[C@H](CC(=O)O)NC(=O)CNC(=O)CNC(=O)[C@H](CO)NC(=O)[C@@H](N)Cc1ccccc1)C(=O)N[C@@H](CCCN=C(N)N)C(=O)N[C@@H](CCCN=C(N)N)C(=O)N[C@@H](CCCN=C(N)N)C(=O)N[C@@H](CS)C(=O)N[C@@H](Cc1ccccc1)C(=O)N[C@@H](CS)C(=O)N[C@H](C(=O)N[C@@H](CCCN=C(N)N)C(N)=O)[C@@H](C)O` [FSGGDCRGLRRRCFCTR], which MIC [23] is on record?
**A.** The MIC was no less than 251 µM.

**Q.** And the MIC [24]?
**A.** Its MIC is 251 µM (≈ 500 µg/mL).

**Q.** And the MIC [5]?
**A.** Its MIC is greater than 251 µM.

**Q.** What about the MIC (Escherichia coli O157) of the same compound?
**A.** The MIC was no less than 229 µM.

**Q.** And the MIC [20]?
**A.** Its MIC is greater than 251 µM.

**Q.** And the MIC [25]?
**A.** Its MIC is 31.4 µM (≈ 62.5 µg/mL).

**Q.** And the MIC [26]?
**A.** Its MIC is no less than 126 µM.

**Q.** And the MIC [9]?
**A.** Its MIC is greater than 251 µM.

**Q.** And the MIC [27]?
**A.** Its MIC is greater than 251 µM.

**Q.** And the MIC [22]?
**A.** Its MIC is 15.7 µM (≈ 31.2 µg/mL).

**Q.** And the MIC (Vibrio cholerae O1 Inaba)?
**A.** Its MIC is no less than 126 µM.

**Q.** `NCCCC[C@@H]1NC(=O)[C@H](CCCCN)NC(=O)[C@H](Cc2cnc[nH]2)NC(=O)[C@H](CCCCN)NC(=O)[C@@H](NC(=O)[C@H](CC(N)=O)NC(=O)[C@@H](N)CC(N)=O)CSSC[C@@H](C(=O)O)NC(=O)CNC(=O)[C@H](CO)NC(=O)CNC1=O` [NNCKHKKGSGC] was tested. Which MIC [28] did it give?
**A.** Its MIC is 42.5 µM (≈ 49.9 µg/mL).

**Q.** And the MIC (Candida krusei CBS 573)?
**A.** The MIC was no less than 42.5 µM.

**Q.** What about the MIC [29] of the same compound?
**A.** Its MIC is no less than 42.5 µM.

**Q.** And the MIC [30]?
**A.** Its MIC is no less than 42.5 µM.

**Q.** What does the source list for `CC(C)C[C@H](NC(=O)[C@H](CCCN=C(N)N)NC(=O)[C@H](CC(C)C)NC(=O)[C@H](CC(C)C)NC(=O)[C@H](CC(C)C)NC(=O)[C@H](CC(C)C)NC(=O)[C@H](CCCCN)NC(=O)[C@H](CC(C)C)NC(=O)[C@@H](N)CCCN=C(N)N)C(=O)N[C@@H](CCCCN)C(N)=O` [RLKLLLLRLK]?
**A.** MIC [31]: 15.8 µM (≈ 20 µg/mL); MIC [32]: 1.58 µM (≈ 2 µg/mL); MIC [33]: 27.7 µM (≈ 35 µg/mL)

**Q.** What does the source list for `CC(=O)N[C@@H](CCCN=C(N)N)C(=O)N1CCC[C@H]1C(=O)N[C@@H](CC(=O)O)C(=O)N[C@@H](CCCCN)C(=O)N1CCC[C@H]1C(=O)N[C@@H](CCCN=C(N)N)C(=O)N1CCC[C@H]1C(=O)N[C@@H](Cc1ccc(O)cc1)C(=O)N[C@@H](CC(C)C)C(=O)N1CCC[C@H]1C(=O)N[C@@H](CCCN=C(N)N)C(=O)N1CCC[C@H]1C(=O)N[C@@H](CCCN=C(N)N)C(=O)N1CCC[C@H]1C(=O)N1CCC[C@H]1C(=O)N[C@@H](CCCN=C(N)N)C(=O)N1CCC[C@H]1C(=O)N[C@H](C(=O)N[C@@H](CCCN=C(N)N)C(N)=O)C(C)C` [RPDKPRPYLPRPRPPRPVR]?
**A.** MIC [34]: > 100 µM; MIC [5]: 2.6 µM (≈ 6.22 µg/mL); MIC [35]: 2 µM (≈ 4.78 µg/mL); MIC [36]: ≥ 100 µM

Source: DBAASP
